Drawing on article PMC8457666 (Science Advances, 2021), this text covers Kd for one compound.

Each structure is given as a SMILES string. Substitutions are numbered along the chain they refer to.

Assay [1] concerns the target T1, WzcCDΔC (Escherichia coli, UniProt P76387, K540M).
T1 sequence (P76387 447-704 K540M limits assumed): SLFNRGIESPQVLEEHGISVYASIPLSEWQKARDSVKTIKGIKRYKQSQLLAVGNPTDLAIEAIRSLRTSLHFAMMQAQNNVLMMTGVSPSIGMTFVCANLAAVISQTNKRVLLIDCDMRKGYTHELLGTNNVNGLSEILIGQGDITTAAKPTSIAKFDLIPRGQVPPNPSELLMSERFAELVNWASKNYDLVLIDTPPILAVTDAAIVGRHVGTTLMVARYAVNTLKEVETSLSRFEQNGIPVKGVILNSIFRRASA
The assay can be described thus: isothermal titration calorimetry, one-site model. In kind it is binding.

In assay [2] the target is T2, WzcCDΔC (Escherichia coli, UniProt P76387).
T2 sequence (P76387 447-704 limits assumed): T1 sequence (P76387 447-704 K540M limits assumed) with M94K
The experiment in a line: isothermal titration calorimetry, one-site model. It is filed as binding.

For the compound `Nc1ncnc2c1ncn2[C@@H]1O[C@H](COP(=O)(O)OP(=O)(O)O)[C@@H](O)[C@H]1O` [ADP], the dissociation constant (Kd) came out at 0.5 ± 0.2 µM at WzcCDΔC [1] and 2.6 ± 1.1 µM on WzcCDΔC [2].
